We go through 8 compounds from patent US20240099344A1, “HYDROXY- AND METHOXY-SUBSTITUTED FLAVONOIDS AND THEIR USE” (Firmenich SA, priority 2021, published 2024).

The subject of assay [1] is human sensory panel (bitter and astringent taste). The experiment in a line: Sensory testing in applications (human sensory panel, 8 experts). The format is in vivo. The note with it: scale of −5 (strong masking) to 5 (strong enhancing), 0 = reference application; for Smart Protein Beverage Astringent / Smart Protein Beverage Bitter / Smart Protein Beverage Off-flavor: 10 ppm in smart protein beverage. An excerpt: Certain HMF compounds were tasted by a human sensory panel to assess their ability to reduce bitterness and astringency. The panel consisted of 8 experts evaluating the samples at 10 ppm for taste properties (bitter and astringent) on a scale of −5 to 5 (−5 denoted strong masking effect and 5 denoted strong enhancing effect, 0 being the intensity of a reference application in coffee, tea or pomegranate juice, smart protein beverage).

Assay [2] has as its system human sensory panel (sweet, bitter or astringent taste). The experiment in a line: Sensory testing in model bases (human sensory panel, 20 trained panelists). The format is in vivo. The note with it: 10 ppm; scale of −5 (strong masking effect) to 5 (strong enhancing effect); 0 = reference water solution containing 4% sucrose or 10 ppm mixture of Limonin, Naringin and Nomilin. An excerpt: Certain HMF compounds were tasted by a human sensory panel to assess their ability to reduce bitterness, reduce astringency, and enhance sweetness. The panel consisted of 20 trained panelists evaluating the samples at 10 ppm for taste properties (sweet, bitter or astringent) on a scale of −5 to 5 (−5 denoted strong masking effect and 5 denoted strong enhancing effect, 0 being the intensity of a reference water solution containing 4% sucrose or 10 ppm mixture of Limonin, Naringin and Nomilin).

`COc1ccc(-c2cc(=O)c3c(O)c(OC)c(O)c(OC)c3o2)cc1` [Compound 101, 5,7-dihydroxy-6,8,4′-trimethoxyflavone]: in assay [1] (10 ppm in coffee), the “Coffee Astringency” value is recorded as 0.17 and the “Coffee Bitterness” value is reported as −0.58. Besides, in assay [1] (10 ppm in pomegranate juice), the “Pomegranate Juice Astringency” value is listed as 0.67 and the “Pomegranate Juice Bitterness” value is given as 0.31. Further, in assay [1], the “Smart Protein Beverage Astringent” value is 0.4, the “Smart Protein Beverage Bitter” value is on record as −0.6 and the “Smart Protein Beverage Off-flavor” value is recorded as −0.1. Further, in assay [1] (10 ppm in tea), the “Tea Astringency” value was 1.00 and the “Tea Bitterness” value worked out at 0.83. Moreover, in assay [2], the Astringency is −1.21, the Bitterness is given as −1.59 and the Sweetness was −0.23.

For the compound `O=c1cc(-c2ccc(O)cc2)oc2cc(O)c(O)c(O)c12` [Compound 103, 5,6,7,4′-tetrahydroxyflavone], in assay [1], the “Smart Protein Beverage Astringent” value stood at 0.25, the “Smart Protein Beverage Bitter” value was determined as 0.00 and the “Smart Protein Beverage Off-flavor” value is recorded as −0.50. Further, in assay [2], the Astringency is −0.35, the Bitterness is recorded as −1.28 and the Sweetness was 0.50.

Turning to `COc1c(O)cc2oc(-c3ccccc3)cc(=O)c2c1O` [Compound 104, 5,7-dihydroxy-6-methoxyflavone], in assay [2], the Astringency is reported as −0.48, the Bitterness is reported as −1.08 and the Sweetness was determined as 0.17.

In the case of `COc1ccc(-c2cc(=O)c3c(O)c(OC)c(O)cc3o2)cc1OC` [Compound 105, 5,7-dihydroxy-6,3′,4′-trimethoxyflavone], in assay [1], the “Smart Protein Beverage Astringent” value is −1.0, the “Smart Protein Beverage Bitter” value is −0.80 and the “Smart Protein Beverage Off-flavor” value was −0.80. In assay [2], the Astringency is reported as −0.53, the Bitterness is on record as −2.02 and the Sweetness is on record as 0.58.

As to `COc1cc(-c2oc3cc(O)cc(O)c3c(=O)c2O)ccc1O` [Compound 106, 3,4′,5,7-tetrahydroxy-3′-methoxyflavone], in assay [2], the Astringency is −0.34, the Bitterness was −1.47 and the Sweetness worked out at 0.58.

For the compound `COc1cc(O)cc2c1C(=O)CC(c1ccccc1)O2` (stereo not drawn) [Compound 107, 5-methoxy-7-hydroxyflavanone], in assay [2], the Astringency is listed as −1.56, the Bitterness is given as −2.56 and the Sweetness is recorded as 0.08.

As to `COc1ccc(-c2oc3cc(OC)c(OC)c(O)c3c(=O)c2OC)cc1O` [Compound 108, 3,6,7,4′-tetramethoxy-5,3′-dihydroxyflavone], in assay [1], the “Smart Protein Beverage Astringent” value was −0.33, the “Smart Protein Beverage Bitter” value is on record as −0.42 and the “Smart Protein Beverage Off-flavor” value is listed as −0.33. Moreover, in assay [2], the Astringency is −1.01, the Bitterness is −1.94 and the Sweetness is on record as −0.08.

As to `COc1c(O)cc(O)c2c(=O)cc(-c3ccccc3)oc12` [Compound 109, 5,7-dihydroxy-8-methoxyflavone], in assay [2], the Astringency is recorded as −0.64, the Bitterness is −1.54 and the Sweetness is −0.58.
